Data as given in patent US9695155B2, “Herbicidal substituted pyrimidinyloxy benzene compounds” (E. I. DU PONT DE NEMOURS AND COMPANY, priority 2013, dated 2017).

Columns and labels:
large (Lg) crabgrass [1] = experiment: Test A postemergence; type: in vivo, Digitaria sanguinalis
Method in brief: (§1)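 Visual injury scored 0–100 (100 = complete control) against untreated controls about 10 days after treatment in a greenhouse. Test chemicals, formulated with surfactant in non-phytotoxic solvent, were sprayed on soil preemergence or on 2-10 cm, one- to two-leaf plants postemergence.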

giant foxtail [2] = experiment: Test A postemergence; type: in vivo, Setaria faberii
Method in brief: as §1

morningglory [3] = experiment: Test A preemergence; type: in vivo, Ipomoea spp.; conditions: for Morningglory plant response rating: 0 to 100 scale, 0 no effect, 100 complete control, approx. 10 days
Method in brief: as §1

pigweed = experiment: Test C postemergence; type: in vivo, Amaranthus retroflexus; conditions: for Plant response rating, Pigweed: Postemergence
Method in brief: (§2)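 Visual ratings on a 0–100 scale (100 = complete control) were made versus untreated controls after 13–15 greenhouse days. Chemicals in a surfactant-containing non-phytotoxic solvent were applied either preemergence to seeds in loam–sand soil or postemergence to 1- to 4-leaf plants 2–18 cm tall.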

Italian ryegrass = experiment: Test C postemergence; type: in vivo, Lolium multiflorum; conditions: for Plant response rating, Ryegrass, Italian: Postemergence
Method in brief: as §2

yellow nutsedge = experiment: Test C postemergence; type: in vivo, Cyperus esculentus; conditions: for Plant response rating, Nutsedge, Yellow: Postemergence
Method in brief: as §2

corn = experiment: Test A postemergence; type: in vivo, Zea mays
Method in brief: as §1

wild oat = experiment: Test C postemergence; type: in vivo, Avena fatua; conditions: for Plant response rating, Oat, Wild: Postemergence
Method in brief: as §2

wheat = experiment: Test A preemergence; type: in vivo, Triticum aestivum
Method in brief: as §1

large (Lg) crabgrass [4] = experiment: Test A preemergence; type: in vivo, Digitaria sanguinalis; conditions: for Crabgrass, Large plant response rating: 0 to 100 scale, 0 no effect, 100 complete control, approx. 10 days
Method in brief: as §1

velvetleaf = experiment: Test A postemergence; type: in vivo, Abutilon theophrasti
Method in brief: as §1

morningglory [5] = experiment: Test C postemergence; type: in vivo, Ipomoea coccinea; conditions: for Plant response rating, Morningglory: Postemergence
Method in brief: as §2

rice = experiment: Test B flooded paddy test; type: in vivo, Oryza sativa; conditions: Flood, 250 g ai/ha; 0 to 100 scale where 0 is no effect and 100 is complete control
Method in brief: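 Compound added straight to paddy water, with pots kept flooded 3 cm above soil, on plants grown to the 2-leaf stage. Visual scoring 0-100 (100 = complete control) against untreated controls after 13 to 15 greenhouse days.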

giant foxtail [6] = experiment: Test A preemergence; type: in vivo, Setaria faberii; conditions: for Foxtail, Giant plant response rating: 0 to 100 scale, 0 no effect, 100 complete control, approx. 10 days
Method in brief: as §1

kochia = experiment: Test C postemergence; type: in vivo, Kochia scoparia; conditions: for Kochia plant response rating / Plant response rating (0 to 100), Kochia: postemergence; for Kochia plant response rating: visual rating; for Kochia plant response rating / Plant response rating, Kochia: scale 0 to 100 (0 no effect, 100 complete control); for Plant response rating, Kochia: Postemergence
Method in brief: as §2

[7] = 125 g ai/ha, 0 to 100 scale where 0 is no effect and 100 is complete control
[8] = 500 g ai/ha, 0 to 100 scale where 0 is no effect and 100 is complete control
[9] = 31 g ai/ha, scale 0 to 100 (0 no effect, 100 complete control), 13 to 15 days
[10] = 62 g ai/ha, scale 0 to 100 (0 no effect, 100 complete control)
[11] = 1000 g ai/ha, 0 to 100 scale, 0 no effect, 100 complete control
[12] = 8 g ai/ha, postemergence, 0 is no effect, 100 is complete control
[13] = 16 g ai/ha, postemergence, 0 is no effect, 100 is complete control
[14] = 31 g ai/ha, postemergence, visual rating, scale 0 to 100 (0 no effect, 100 complete control), 13 to 15 days
[15] = 62 g ai/ha, scale 0 to 100 (0 no effect, 100 complete control), 13 to 15 days

## FC(F)Oc1cnn(-c2ccccc2Oc2ncc(Cl)cn2)c1 [Compound 98]
Large (Lg) crabgrass [1]; [7]
  Plant response rating, Crabgrass, Large: 80
Large (Lg) crabgrass [1]; [8]
  Plant response rating, Crabgrass, Large: 100
Giant foxtail [2]; [7]
  Plant response rating, Foxtail, Giant: 80
Giant foxtail [2]; [8]
  Plant response rating, Foxtail, Giant: 90
Morningglory [3]; [7]
  Plant response rating, Morningglory: 60
Morningglory [3]; 500 g ai/ha
  Morningglory plant response rating: 80
pigweed; 125 g ai/ha, postemergence
  Plant response rating (0 to 100), Pigweed: 75
pigweed; [9]
  Plant response rating, Pigweed: 75
pigweed; [10]
  Plant response rating, Pigweed: 75
Italian ryegrass; 125 g ai/ha, postemergence
  Plant response rating (0 to 100), Ryegrass, Italian: 25
Italian ryegrass; [9]
  Plant response rating, Ryegrass, Italian: 0
Italian ryegrass; [10]
  Plant response rating, Ryegrass, Italian: 5
Yellow nutsedge; 125 g ai/ha, postemergence
  Plant response rating (0 to 100), Nutsedge, Yellow: 5
Yellow nutsedge; [9]
  Plant response rating, Nutsedge, Yellow: 10
Yellow nutsedge; [10]
  Plant response rating, Nutsedge, Yellow: 5
corn; [7]
  Plant response rating, Corn: 40
corn; [8]
  Plant response rating, Corn: 70
Wild oat; 125 g ai/ha, postemergence
  Plant response rating (0 to 100), Oat, Wild: 20
Wild oat; [9]
  Plant response rating, Oat, Wild: 5
Wild oat; [10]
  Plant response rating, Oat, Wild: 10
wheat; [7]
  Plant response rating, Wheat: 0
Large (Lg) crabgrass [4]; [7]
  Plant response rating, Crabgrass, Large: 100
Large (Lg) crabgrass [4]; 500 g ai/ha
  Crabgrass, Large plant response rating: 100
velvetleaf; [8]
  Plant response rating, Velvetleaf: 100
Morningglory [5]; 125 g ai/ha, postemergence
  Plant response rating (0 to 100), Morningglory: 85
Morningglory [5]; [9]
  Plant response rating, Morningglory: 30
Morningglory [5]; [10]
  Plant response rating, Morningglory: 65
rice
  Plant response rating, Rice: 15
Giant foxtail [6]; [7]
  Plant response rating, Foxtail, Giant: 100
Giant foxtail [6]; 500 g ai/ha
  Foxtail, Giant plant response rating: 100
kochia; 16 g ai/ha, 13 to 15 days
  Kochia plant response rating: 70
kochia; 125 g ai/ha
  Plant response rating (0 to 100), Kochia: 98
kochia; 31 g ai/ha, 13 to 15 days
  Plant response rating, Kochia: 80
kochia; 62 g ai/ha
  Plant response rating, Kochia: 90

## Clc1cnc(Oc2ccccc2-n2cc(I)nn2)nc1 [Compound 222]
Large (Lg) crabgrass [1]; [11]
  Plant response rating, Crabgrass, Large: 100
Giant foxtail [2]; [11]
  Plant response rating, Foxtail, Giant: 90
Morningglory [3]; 1000 g ai/ha
  Morningglory plant response rating: 100
pigweed; [12]
  Plant response rating (0 to 100), Pigweed: 65
pigweed; [13]
  Plant response rating (0 to 100), Pigweed: 70
pigweed; [14]
  Pigweed plant response rating: 80
pigweed; [15]
  Plant response rating, Pigweed: 85
Italian ryegrass; [12]
  Plant response rating (0 to 100), Ryegrass, Italian: 0
Italian ryegrass; [13]
  Plant response rating (0 to 100), Ryegrass, Italian: 0
Italian ryegrass; [14]
  Ryegrass, Italian plant response rating: 0
Italian ryegrass; [15]
  Plant response rating, Ryegrass, Italian: 0
Yellow nutsedge; [12]
  Plant response rating (0 to 100), Nutsedge, Yellow: 0
Yellow nutsedge; [13]
  Plant response rating (0 to 100), Nutsedge, Yellow: 5
Yellow nutsedge; [14]
  Nutsedge, Yellow plant response rating: 5
Yellow nutsedge; [15]
  Plant response rating, Nutsedge, Yellow: 5
corn; [11]
  Plant response rating, Corn: 50
Wild oat; [12]
  Plant response rating (0 to 100), Oat, Wild: 5
Wild oat; [13]
  Plant response rating (0 to 100), Oat, Wild: 10
Wild oat; [14]
  Oat, Wild plant response rating: 10
Wild oat; [15]
  Plant response rating, Oat, Wild: 30
wheat; 1000 g ai/ha, 0 to 100 scale, 0 no effect, 100 complete control, approx. 10 days
  Wheat plant response rating: 70
Large (Lg) crabgrass [4]; 1000 g ai/ha
  Crabgrass, Large plant response rating: 100
velvetleaf; [11]
  Plant response rating, Velvetleaf: 100
Morningglory [5]; [12]
  Plant response rating (0 to 100), Morningglory: 40
Morningglory [5]; [13]
  Plant response rating (0 to 100), Morningglory: 90
Morningglory [5]; [14]
  Morningglory plant response rating: 45
Morningglory [5]; [15]
  Plant response rating, Morningglory: 70
rice
  Plant response rating, Rice: 0
Giant foxtail [6]; 1000 g ai/ha
  Foxtail, Giant plant response rating: 100
kochia; 8 g ai/ha, 0 is no effect, 100 is complete control
  Plant response rating (0 to 100), Kochia: 60
kochia; 16 g ai/ha, 0 is no effect, 100 is complete control
  Plant response rating (0 to 100), Kochia: 85
kochia; 31 g ai/ha, 13 to 15 days
  Kochia plant response rating: 100
kochia; 62 g ai/ha, 13 to 15 days
  Plant response rating, Kochia: 100
